According to patent publication US20050250822A1, “Substituted benzanilide compound and noxious organism controlling agent” (priority 2002, published 2005):

Legend:
[1] = system: Common cutworms (Spodoptera litura) with second instar larvae; experiment: Insecticidal test against common cutworm (leaf dip); format: in vivo; details: foliar, 144 h, chemical solution 100 ppm, leaf dip, 25° C., dead insects counted after 6 days, read-out: insecticidal rate (rate of dead insects)
Description: Insecticidal Test Against Common Cutworm
(§1) A 10% emulsifiable concentrate (depending on the compounds, 25% wettable powder was applied for the test) of the compound of the present invention was diluted with water containing a spreading agent to prepare a chemical solution with a concentration of 100 ppm. To the chemical solution was dipped leaves of Chinese olive for about 10 seconds, and after air-drying, they were placed in a laboratory dish, then, 10 Common cutworms (Spodoptera litura) with second instar larvae per the dish were released therein, and the dish was covered with a lid having holes and contained at a thermostat chamber at 25° C. A number of dead insect(s) after 6 days was counted and a rate of dead insects was calculated by the following calculation formula. Incidentally, the test was carried out with two districts. Rate of dead insects (%)=(Number of dead insects/Number of released insects)×100

[2] = system: diamondback moths (Plutella xylostella) with second instar larvae; experiment: Insecticidal test against diamondback moth (leaf dip); format: in vivo; details: foliar, 144 h, chemical solution 100 ppm, leaf dip, 25° C., dead insects counted after 6 days, read-out: insecticidal rate (rate of dead insects)
Description: Insecticidal Test Against Diamondback Moth
as §1, with “diamondback moths (Plutella xylostella)” for “Common cutworms (Spodoptera litura)”, “in” for “by”, “same manner as in Test Example 1.” for “following calculation formula.”, “districts.” for “districts. Rate of dead insects (%)=(Number of dead insects/Number of released insects)×100”

| Structure (SMILES) | pest or weed control at 100 ppm [1] [%] | pest or weed control at 100 ppm [2] [%] |
| --- | --- | --- |
| CC1=NOC(c2ccc(NC(=O)c3cccc(I)c3C(=O)NC(C)C)c(C)c2)(C(F)(F)F)C1 (stereo not drawn) [1-006, 3-Iodo-N^2-isopropyl-N^1-[2-methyl-4-(3-methyl-5-trifluoromethyl-4,5-dihydroisoxazol-5-yl)phenyl]phthalic diamide] | ≥ 80 | ≥ 80 |
| CC1=NOC(c2ccc(NC(=O)c3c(I)cccc3C(=O)NC(C)C)c(C)c2)(C(F)(F)F)C1 (stereo not drawn) [1-007, 6-iodo-N^2-isopropyl-N^1-[2-methyl-4-(3-methyl-5-trifluoromethyl-4,5-dihydroisoxazol-5-yl)phenyl]phthalic diamide] | – | ≥ 80 |
| Cc1cc(C2(C(F)(F)F)CC(C(F)(F)F)=NO2)ccc1NC(=O)c1cccc(I)c1C(=O)NC(C)C (stereo not drawn) [1-013, 3-Iodo-N^2-isopropyl-N^1-[2-methyl-4-(3,5-bistrifluoromethyl-4,5-dihydroisoxazol-5-yl)phenyl]phthalic diamide] | – | ≥ 80 |
| CCOC(=O)C1=NOC(c2ccc(NC(=O)c3c(I)cccc3C(=O)NC(C)C)c(C)c2)(C(F)(F)F)C1 (stereo not drawn) [1-020, N^1-[4-(3-ethoxycarbonyl-5-trifluoromethyl-4,5-dihydroisoxazol-5-yl)-2-methylphenyl]-6-iodo-N^2-isopropylphthalic diamide] | – | ≥ 80 |
| Cc1cc(C2(C(F)(F)F)CC(n3cncn3)=NO2)ccc1NC(=O)c1cccc(I)c1C(=O)NC(C)C (stereo not drawn) [1-032, 3-Iodo-N^2-isopropyl-N^1-[4-[3-(1,2,4-triazol-1-yl)-5-trifluoromethyl-4,5-dihydroisoxazol-5-yl]-2-methylphenyl]phthalic diamide] | ≥ 80 | ≥ 80 |
| Cc1cc(C2(C3CC3)CC(c3ccc(Cl)cc3)=NO2)ccc1NC(=O)c1cccc(I)c1C(=O)NC(C)C (stereo not drawn) [2-013, N^1-[4-[3-(4-chlorophenyl)-5-cyclopropyl-4,5-dihydroisoxazol-5-yl]-2-methylphenyl]-3-iodo-N 2-isopropylphthalic diamide] | ≥ 80 | ≥ 80 |
| Cc1cc(C2(C(F)(F)F)CC(c3ccc(F)cc3)=NO2)ccc1NC(=O)c1cccc(I)c1C(=O)NC(C)C (stereo not drawn) [2-016, N^1-[4-[3-(4-fluorophenyl)-5-trifluoromethyl-4,5-dihydroisoxazol-5-yl]-2-methylphenyl]-3-iodo-N^2-isopropylphthalic diamide] | ≥ 80 | ≥ 80 |
| CCN(CC)C(=O)c1c(I)cccc1C(=O)Nc1ccc(C2(C(F)(F)F)CC(c3ccc(S(C)(=O)=O)cc3)=NO2)cc1C (stereo not drawn) [2-162, N^2, N^2-diethyl-3-iodo-N^1-[4-[3-(4-methylsulfonylphenyl)-5-trifluoromethyl-4,5-dihydroisoxazol-5-yl]-2-methylphenyl]phthalic diamide] | – | ≥ 80 |
| Cc1cc(C2(C(F)(F)F)CC(C#N)=C(c3ccccc3)O2)ccc1NC(=O)c1cccc(I)c1C(=O)NC(C)C (stereo not drawn) [4-01, N^1-[4-(3-cyano-2-phenyl-5-trifluoromethyl-4,5-dihydrofuran-5-yl)-2-methylphenyl]-3-iodo-N 2-isopropylphthalic diamide] | – | ≥ 80 |
| CC1=NN(c2ccc(Cl)cc2)C(c2ccc(NC(=O)c3cccc(I)c3C(=O)NC(C)C)c(C)c2)C1 (stereo not drawn) [6-02, N^1-[4-[1-(4-chlorophenyl)-3-methyl-4,5-dihydropyrazol-5-yl]-2-methylphenyl]-3-iodo-N^2-isopropylphthalic diamide] | – | ≥ 80 |
| Cc1cc(C2(C(F)(F)F)OCC(c3ccc(Cl)cc3)S2)ccc1NC(=O)c1cccc(I)c1C(=O)NC(C)C (stereo not drawn) [7-09, N^1-[4-[4-(4-chlorophenyl)-2-trifluoromethyl-1,3-oxathiolan-2-yl]-2-methylphenyl]-3-iodo-N^2-isopropylphthalic diamide] | – | ≥ 80 |
